Like-named read-outs stand apart in the source and are kept apart here.
Key:
[1] = for Stable preservation time in solution: neutral aqueous solution
[2] = test system: normal peripheral blood cells of A; conditions: treated peripheral bloods of A (after freezing and thawing) and F on normal peripheral blood cells of A
Experimental: In Test examples, treatment of the peripheral blood by 2-methyl-3-butenyl-1-pyrophosphoric acid or by a salt thereof was conducted as follows unless otherwise specified. Lymphocytes contained in the peripheral blood derived from healthy volunteer were treated so that the final concentration of the pyrophosphoric acid compound was 20 μM, and cultured in a Yssel's medium under conditions of temperature at 37° C. and a carbon dioxide concentration of 5%. […] After 12 days, the cells were collected.

[3] = test system: human Vγ2Vδ2 type T cells; experiment: Proliferation of Vγ2Vδ2 type T cells in treated peripheral blood mononuclear cells (ratio in CD3 cells); format: cell-based; conditions: day 11, peripheral blood mononuclear cells of volunteer G
Experimental: After 12 days, the cells were collected.
10 ml of the peripheral blood collected from a healthy volunteer G was subjected to Ficoll-Paque specific gravity centrifugation to purify the peripheral blood mononuclear cells and they were suspended in a Yssel's medium. The cells were apportioned into a 24-hole plate so that the number of the cells becomes a concentration of 2.5 million/1.5 ml/hole, and then, according to the above-mentioned method, treatments 1 to 5 were conducted as shown in Table 1. […] On the day 11 after conducting the treatment, a ratio of Vγ2Vδ2 type T cells in existing CD3 cells was calculated.

[4] = test system: human Vγ2Vδ2 type T cell clones
Vγ2Vδ2 type T cells = conditions: prior art; cited from earlier work

C=CC(C)COP(=O)([O-])OP(=O)([O-])[O-].[Na+].[Na+].[Na+] (centres unmarked) [sodium salt of 2-methyl-3-butenyl-1-pyrophosphoric acid]
Dissociation of inorganic pyrophosphoric acid ([1]; acidic range of pH 4 or less): observed within a few minutes | Stable preservation time in solution ([1]; pH 6 to 7, room temperature): more than one week | Stable preservation time in solution ([1]; pH 6 to 7, −20° C.): more than one year | Cytotoxicity of treated Vγ2Vδ2 type T cells on normal cells [2]: do not attack the normal cells | Vγ2Vδ2 type T cells/CD3 cells ([3]; 2 μM sodium salt + interleukin-2 10 U/ml): 58.3% | Vγ2Vδ2 type T cells/CD3 cells ([3]; 20 μM sodium salt + interleukin-2 10 U/ml): 85.5% | Vγ2Vδ2 type T cells/CD3 cells ([3]; 200 μM sodium salt + interleukin-2 10 U/ml): 94.5% | Amount in whose presence the human Vγ2Vδ2 type T cells proliferate [4]: several hundreds μM | Amount that can stimulate the cells ([4]; human Vγ2Vδ2 type T cell clones): several hundreds nM to several tens μM

CCOP(=O)(O)O [mono ethyl phosphoric acid]
Concentration required to activate Vγ2Vδ2 type T cells (Vγ2Vδ2 type T cells): several hundreds of μM to several mM

C=C(C)CCOP(=O)(O)OP(=O)(O)O [isopentenyl pyrophosphoric acid]
Concentration required to activate Vγ2Vδ2 type T cells (Vγ2Vδ2 type T cells): several hundreds of μM to several mM
